Literature values in PMC9775177, “NLRP3-Inflammasome Inhibition with IZD334 Does Not Reduce Cardiac Damage in a Pig Model of Myocardial Infarction” (Biomedicines, 2022).

How the values were obtained:
IR injury in mice = tested on: IR injury in mice; design: method as in PMID 30747785; details: cited from earlier work
large animal model of MI = tested on: large animal model of MI; design: method as in PMID 27432019; details: cited from earlier work
[1] = large animal model, 7 days following MI

Row | SMILES | infarct development (IR injury in mice) | left ventricular dysfunction (IR injury in mice) | IS (infarct size) (large animal model of MI; [1]) | LV function (large animal model of MI; [1]) | circulating markers of inflammation (large animal model of MI; pigs treated with MCC950)
1 | CS(=O)(=O)CCC#N [OLT1177] | limited infarct development | prevented left ventricular dysfunction |  |  | 
2 | CC(C)(O)c1coc(S(=O)(=O)NC(=O)Nc2c3c(cc4c2CCC4)CCC3)c1 [MCC950] |  |  | dose-dependently reduced IS | improvement in LV function | only modestly lower
